Laboratory results: ChEMBL document CHEMBL1201862, “PubChem BioAssay data set” (2004)
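Protocol summary: plate cells (96-well), add compound at 5 concentrations, incubate 48 h, interpolate endpoints linearly. GI50 marks 50% less growth.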 The source made the active and inactive calls. Rule as the data show it: active = GI50 up to about 1.1 µM and inactive = higher.

Tests used:
Assay in all cases: inhibition of tumour cell growth, NCI panel, 48 h
HOP-18 = tested on: HOP-18
RXF 631 = tested on: RXF 631
LXFL 529 = tested on: LXFL 529
MDA-MB-231 = tested on: MDA-MB-231
MDA-MB-435 = tested on: MDA-MB-435
MDA-N = tested on: MDA-N
DU-145 = tested on: DU-145
786-0 = tested on: 786-0
Hs-578T = tested on: Hs-578T

Cc1cn(C2CC(O)C(CO)C2C)c(=O)[nH]c1=O (stereo unspecified) was tested, and the GI50 (HOP-18) was > 100 µM (inactive), the GI50 (RXF 631) was > 100 µM (inactive) and the GI50 (LXFL 529) was > 100 µM (inactive).
In the case of O[C@@]12Cc3c([nH]c4ccccc34)[C@@H]3Oc4cccc5c4[C@@]31CCN(CC1CC1)[C@@H]2C5, the GI50 (MDA-MB-231) is reported as 25.7 µM (inactive), the GI50 (MDA-MB-435) is reported as 15.7 µM (inactive) and the GI50 (MDA-N) is reported as 19.6 µM (inactive). The GI50 (DU-145) was 27 µM (inactive).
c1ccc(CCn2cncn2)cc1 was tested, and the GI50 (RXF 631) was > 100 µM (inactive) and the GI50 (LXFL 529) was > 100 µM (inactive).
CC(C)=CCC/C(C)=C/CCC1(C)C=Cc2c(c3ccccc3oc2=O)O1 (stereo unspecified) was tested, and the GI50 (HOP-18) was 17.3 µM (inactive).
In the case of CNS(=O)(=O)NN(C)S(=O)(=O)c1ccc(F)cc1, the GI50 (HOP-18) is reported as > 100 µM (inactive), the GI50 (786-0) is reported as > 100 µM (inactive) and the GI50 (LXFL 529) is reported as > 100 µM (inactive).
For CCSc1nc(N/N=C/c2cccs2)c2cnn(CO)c2n1, the GI50 (Hs-578T) was 4.31 µM (inactive), the GI50 (MDA-MB-231) was 18.3 µM (inactive) and the GI50 (MDA-MB-435) was 6.25 µM (inactive). For the same compound, the GI50 (786-0) was 0.0614 µM (active) and the GI50 (DU-145) was 10.3 µM (inactive).
For COc1cc2c(cc1OC)-c1cc3ccccc3c[n+]1CC2, the GI50 (Hs-578T) was 23.8 µM (inactive), the GI50 (MDA-MB-231) was > 100 µM (inactive) and the GI50 (MDA-MB-435) was > 100 µM (inactive). The GI50 (MDA-N) was > 100 µM (inactive) and the GI50 (DU-145) was > 100 µM (inactive).
CCCCCCCCCCCCCCCCCc1cc(Cl)nc(Cl)n1 was tested, and the GI50 (Hs-578T) was > 100 µM (inactive), the GI50 (MDA-MB-435) was > 100 µM (inactive) and the GI50 (786-0) was > 100 µM (inactive).
In the case of N#Cc1ccc(-c2nc(C#N)c(N)o2)cc1, the GI50 (Hs-578T) is reported as > 10 µM (inactive), the GI50 (MDA-MB-231) is reported as > 10 µM (inactive) and the GI50 (MDA-MB-435) is reported as > 10 µM (inactive). The GI50 (MDA-N) was > 10 µM (inactive), the GI50 (786-0) was > 10 µM (inactive) and the GI50 (DU-145) was > 10 µM (inactive).
With O=C(Nc1cccc(O)c1)C(=O)C(C(=O)c1ccccc1F)C1OC(=O)c2ccccc21 (stereo unspecified) the GI50 (RXF 631) was 21.6 µM (inactive) and the GI50 (LXFL 529) was 16.4 µM (inactive).
For COC1=C2CC(C)CC(OC)C(O)C(C)/C=C(\C)C(OC(N)=O)C(OC)/C=C\C=C(/C)C(=O)NC(=C(/C=N/C(C)(C)C)C1=O)C2=O (stereo unspecified), the GI50 (HOP-18) was 6.85 µM (inactive).
With CCOC(=O)/C=C/c1c(C)[nH]c(=O)[nH]c1=O the GI50 (HOP-18) was > 250 µM (inactive).
In the case of CN(CCCNc1ccc2ncn3c4ccccc4c(=O)c1c23)CCCN1C(=O)c2cccc3cc([N+](=O)[O-])cc(c23)C1=O, the GI50 (Hs-578T) is reported as 0.0879 µM (active), the GI50 (MDA-MB-231) is reported as 0.0201 µM (active) and the GI50 (MDA-MB-435) is reported as 0.0219 µM (active). The GI50 (MDA-N) was 0.0321 µM (active).
For CNC1=C(C)C(=O)C2=C(C1=O)C(COC(N)=O)C1(OC)C3NC3CN21 (stereo unspecified), the GI50 (Hs-578T) was 2.49 µM (inactive), the GI50 (MDA-MB-435) was 1.6 µM (inactive) and the GI50 (MDA-N) was 0.574 µM (active).
C/C(=N\NS(=O)(=O)c1ccccc1)c1ccccc1 was tested, and the GI50 (HOP-18) was > 100 µM (inactive).
With Oc1ccc2ccccc2c1/N=N/c1cccc2ccccc12 the GI50 (Hs-578T) was 21.1 µM (inactive), the GI50 (MDA-MB-231) was 49.9 µM (inactive) and the GI50 (MDA-MB-435) was > 100 µM (inactive). The GI50 (MDA-N) was > 100 µM (inactive), the GI50 (786-0) was 66.1 µM (inactive) and the GI50 (DU-145) was > 100 µM (inactive).
CC1(C)O[C@@H](C[C@]2(C#N)C[C@H](CCl)OC(C)(C)O2)C[C@@H](C#N)O1 was tested, and the GI50 (HOP-18) was > 100 µM (inactive) and the GI50 (786-0) was > 100 µM (inactive).
For O=C1Sc2ccccc2/C1=N/Nc1ccccc1[N+](=O)[O-], the GI50 (Hs-578T) was 36.1 µM (inactive), the GI50 (MDA-MB-435) was > 100 µM (inactive) and the GI50 (MDA-N) was 57 µM (inactive). The GI50 (DU-145) was > 100 µM (inactive).
For O=C1C(=O)c2ccccc2C=C1[N+](=O)[O-], the GI50 (Hs-578T) was 57.1 µM (inactive), the GI50 (MDA-MB-231) was 18.1 µM (inactive) and the GI50 (MDA-MB-435) was 16.8 µM (inactive). The GI50 (MDA-N) was 19.7 µM (inactive), the GI50 (786-0) was 45.1 µM (inactive) and the GI50 (DU-145) was 49 µM (inactive).
C=C1C[C@@H]2C[C@@H](C)CC(O)[C@]2(CCCN)C1O (stereo partly specified) was tested, and the GI50 (HOP-18) was > 100 µM (inactive), the GI50 (RXF 631) was > 100 µM (inactive) and the GI50 (786-0) was > 100 µM (inactive). For the same compound, the GI50 (LXFL 529) was > 100 µM (inactive).
For O=C1CNc2cc(N3CCCCC3)ccc2N1, the GI50 (Hs-578T) was 4.43 µM (inactive), the GI50 (MDA-MB-435) was 60.4 µM (inactive) and the GI50 (MDA-N) was 75.2 µM (inactive). The GI50 (DU-145) was > 100 µM (inactive).
C=C(C)C(=O)O[C@H]1CC2=C[C@@H](C[C@@]3(C)O[C@@H]3[C@H]3OC(=O)C(=C)[C@@H]31)OC2=O [ELEPHANTOPIN] was tested, and the GI50 (HOP-18) was 4.33 µM (inactive).
